According to patent publication US7241760B2, “Heteroaryl-substituted imidazole derivatives” (Hoffmann-La Roche Inc., priority 2003, dated 2007):
pKi: −log10 of the molar value.

These molecules were tested against T1, human mGlu 5a receptor (Homo sapiens, UniProt P41594) (assay: [3H]MPEP competition binding on membranes of EBNA cells transfected with human mGlu 5a receptor). Conditions: competition with [3H]MPEP (2 nM), 1 h at 4° C., membranes of transiently transfected EBNA cells; Ki=IC50/[1+L/Kd].
T1 construct: expressed in transfected cells; host or cells: EBNA cells (transient transfection); cell membrane homogenates
Method: For binding experiments, cDNA encoding human mGlu 5a receptor was transiently transfected into EBNA cells using a procedure described by Schlaeger and Christensen [Cytotechnology 15:1–13 (1998)]. Cell membrane homogenates were stored at −80° C. until the day of assay where upon they were thawed and resuspended and polytronised in 15 mM Tris-HCl, 120 mM NaCl, 100 mM KCl, 25 mM CaCl2, 25 mM MgCl2 binding buffer at pH 7.4 to a final assay concentration of 20 μg protein/well.
Saturation isotherms were determined by addition of twelve [^3H]MPEP concentrations (0.04–100 nM) to these membranes (in a total volume of 200 μl) for 1 h at 4° C. Competition experiments were performed with a fixed concentration of [^3H]MPEP (2 nM) and IC50 values of test compounds evaluated using 11 concentrations (0.3–10,000 nM). Incubations were performed for 1 h at 4° C.
At the end of the incubation, membranes were filtered onto unifilter (96-well white microplate with bonded GF/C filter preincubated 1 h in 0.1% PEI in wash buffer, Packard BioScience, Meriden, Conn.) with a Filtermate 96 harvester (Packard BioScience) and washed 3 times with cold 50 mM Tris-HCl, pH 7.4 buffer. Nonspecific binding was measured in the presence of 10 μM MPEP. The radioactivity on the filter was counted (3 min) on a Packard Top-count microplate scintillation counter with quenching correction after addition of 45 μl of microscint 40 (Can berra Packard S. A., Zürich, Switzerland) and shaking for 20 min. For functional assays, [Ca^2+]i measurements were performed as described previously by Porter et al. [Br. J. Pharmacol. 128:13–20 (1999)] on recombinant human mGlu 5a receptors in HEK-293 cells. The cells were dye loaded using Fluo 4-AM (obtainable by FLUKA, 0.2 μM final concentration). [Ca^2+]i measurements were performed using a fluorometric imaging plate reader (FLIPR, Molecular Devices Corporation, La Jolla, Calif., USA). Antagonist evaluation was performed following a 5 min preincubation with the test compounds followed by the addition of a submaximal addition of agonist.
The inhibition (antagonists) curves were fitted with a four parameter logistic equation giving IC50, and Hill coefficient using an iterative non linear curve fitting software (Xcel fit).
For binding experiments the Ki values of the compounds tested are given. The Ki value is defined by the following formula: Ki=IC50/[1+L/Kd] in which the IC50 values are those concentrations of the compounds tested which cause 50% inhibition of the competing radioligand ([^3H]MPEP). L is the concentration of radioligand used in the binding experiment and the Kd value of the radioligand is empirically determined for each batch of membranes prepared.

T1 sequence (P41594 21-1180 isoform P41594-2 limits assumed): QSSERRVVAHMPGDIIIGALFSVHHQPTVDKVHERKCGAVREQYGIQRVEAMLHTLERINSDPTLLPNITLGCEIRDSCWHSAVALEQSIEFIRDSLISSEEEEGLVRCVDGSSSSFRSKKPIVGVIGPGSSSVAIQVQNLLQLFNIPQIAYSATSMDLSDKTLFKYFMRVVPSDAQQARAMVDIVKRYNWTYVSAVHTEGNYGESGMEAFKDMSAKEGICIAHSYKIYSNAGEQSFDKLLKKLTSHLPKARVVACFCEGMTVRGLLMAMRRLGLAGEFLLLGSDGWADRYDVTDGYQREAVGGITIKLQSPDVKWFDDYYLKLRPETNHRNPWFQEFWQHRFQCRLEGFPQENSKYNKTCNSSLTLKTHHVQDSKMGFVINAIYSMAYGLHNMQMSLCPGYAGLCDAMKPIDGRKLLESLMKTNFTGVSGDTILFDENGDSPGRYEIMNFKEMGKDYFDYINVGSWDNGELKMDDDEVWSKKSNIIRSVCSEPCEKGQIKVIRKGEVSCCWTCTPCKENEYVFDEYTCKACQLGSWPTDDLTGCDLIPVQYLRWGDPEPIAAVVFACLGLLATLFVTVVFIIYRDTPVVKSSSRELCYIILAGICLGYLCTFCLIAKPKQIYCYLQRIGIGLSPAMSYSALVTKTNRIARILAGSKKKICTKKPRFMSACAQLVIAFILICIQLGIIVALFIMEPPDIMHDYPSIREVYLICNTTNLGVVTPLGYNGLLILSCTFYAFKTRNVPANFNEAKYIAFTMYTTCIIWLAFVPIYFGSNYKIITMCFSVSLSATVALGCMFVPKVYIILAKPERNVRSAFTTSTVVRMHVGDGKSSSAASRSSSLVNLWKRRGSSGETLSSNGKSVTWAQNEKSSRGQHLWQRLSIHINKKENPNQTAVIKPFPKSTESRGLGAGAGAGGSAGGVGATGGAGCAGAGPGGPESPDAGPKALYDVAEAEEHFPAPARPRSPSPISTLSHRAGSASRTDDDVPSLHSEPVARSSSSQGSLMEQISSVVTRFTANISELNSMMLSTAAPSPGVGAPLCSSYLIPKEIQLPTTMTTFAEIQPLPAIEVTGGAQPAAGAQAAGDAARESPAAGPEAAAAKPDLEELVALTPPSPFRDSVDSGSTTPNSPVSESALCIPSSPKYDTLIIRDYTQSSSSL

First: Cc1nc(C#Cc2cccc(Cl)c2)cn1-c1ncccn1 [Example 1, 2-[4-(3-Chloro-phenylethynyl)-2-methyl-imidazol-1-yl]-pyrimidine]
Second: Cc1nc(C#Cc2cccc(Cl)c2)cn1-c1nccc(C(F)(F)F)n1 [Example 2, 2-[4-(3-Chloro-phenylethynyl)-2-methyl-imidazol-1-yl]-4-trifluoromethyl-pyrimidine]
The pKi of the first is 0.35 log units lower: 7.20 for the first, 7.55 for the second. The second binds more tightly here.

First: Cc1cccc(-n2cc(C#Cc3cccc(C#N)c3)nc2C)n1 [Example 3, 3-[2-Methyl-1-(6-methyl-pyridin-2-yl)-1H-imidazol-4-ylethynyl]-benzonitrile]
Second: Cc1nc(C#Cc2cccc(C#N)c2)cn1-c1cnccn1 [Example 22, 3-(2-Methyl-1-pyrazin-2-yl-1H-imidazol-4-ylethynyl)-benzonitrile]
The pKi of the first is 0.29 log units higher: 7.51 for the first, 7.22 for the second.

Compared with `Cc1cc(-n2cc(C#Cc3cccc(Cl)c3)nc2C)cnn1` [Example 8, 5-[4-(3-Chloro-phenylethynyl)-2-methyl-imidazol-1-yl]-3-methyl-pyridazine], `Cc1nc(C#Cc2cccc(Cl)c2)cn1-c1ccc(Cl)nn1` [Example 25, 3-Chloro-6-[4-(3-chloro-phenylethynyl)-2-methyl-imidazol-1-yl]-pyridazine] is 0.69 log units higher in pKi: 6.80 for the first, 7.49 for the second.

First: Cc1nc(C#Cc2cccc(Cl)c2)cn1-c1ccoc1 [Example 9, 4-(3-Chloro-phenylethynyl)-1-furan-3-yl-2-methyl-1H-imidazole]
Second: COc1ccc(-n2cc(C#Cc3cccc(Cl)c3)nc2C)nn1 [Example 26, 3-[4-(3-Chloro-phenylethynyl)-2-methyl-imidazol-1-yl]-6-methoxy-pyridazine]
The pKi of the first is 0.93 log units higher: 7.96 for the first, 7.03 for the second.

First: COc1ccnc(-n2cc(C#Cc3cccc(C#N)c3)nc2C)n1 [Example 20, 3-[1-(4-Methoxy-pyrimidin-2-yl)-2-methyl-1H-imidazol-4-ylethynyl]-benzonitrile]
Second: Cc1nc(C#Cc2cccc(C#N)c2)cn1-c1cncc(F)c1 [Example 35, 3-[1-(5-Fluoro-pyridin-3-yl)-2-methyl-1H-imidazol-4-ylethynyl]-benzonitrile]
The pKi of the first is 0.55 log units higher: 7.96 for the first, 7.41 for the second.

Going from `Cc1nc(C#Cc2cccc(Cl)c2)cn1-c1ccc(N(C)C)nn1` [Example 27, {6-[4-(3-Chloro-phenylethynyl)-2-methyl-imidazol-1-yl]-pyridazin-3-yl}-dimethyl-amine] to `Cc1nc(C#Cc2cccc(Cl)c2)cn1-c1cccc(N2CCSCC2)n1` [Example 39, 4-{6-[4-(3-Chloro-phenylethynyl)-2-methyl-imidazol-1-yl]-pyridin-2-yl}-thiomorpholine], the pKi rises from 6.89 to 8.05 (1.16 log units). The second binds more tightly here.

`Cc1ccc(-n2cc(C#Cc3cccc(C(F)(F)F)c3)nc2C)nc1` [Example 31, 5-Methyl-2-[2-methyl-4-(3-trifluoromethyl-phenylethynyl)-imidazol-1-yl]-pyridine] and `Cc1nc(C#Cc2cccc(C(F)(F)F)c2)cn1-c1ccc(Cl)nc1` [Example 33, 2-Chloro-5-[2-methyl-4-(3-trifluoromethyl-phenylethynyl)-imidazol-1-yl]-pyridine] are within 0.2 log units of each other in pKi: 7.06 for the first, 7.18 for the second.

`Cc1nc(C#Cc2cccc(C#N)c2)cn1-c1cncc(N(C)C)c1` [Example 38, 3-[1-(5-Dimethylamino-pyridin-3-yl)-2-methyl-1H-imidazol-4-ylethynyl]-benzonitrile] and `Cc1nc(C#Cc2cccc(Cl)c2)cn1-c1cccc(N2CCS(=O)(=O)CC2)n1` [Example 40, 4-{6-[4-(3-Chloro-phenylethynyl)-2-methyl-imidazol-1-yl]-pyridin-2-yl}-thiomorpholine-1,1-dioxide] are within 0.2 log units of each other in pKi: 7.00 for the first, 7.17 for the second.
